Measurements from patent US11639350B2, “Heteroaryldihydropyrimidine derivatives and methods of treating hepatitis B infections” (Janssen Pharmaceutica NV, priority 2018, dated 2023).
Read-outs that look alike come from different tables or passages of the source.

Experiments:
[1] = Cytotoxicity determination in HepG2.2.15 cells (CCK-8); assay type: cell-based; conditions: human, 6 days of compound treatment, CCK-8, highest concentration 100 μM
Procedure, shortened: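 HepG2.2.15 cells seeded at 5,000 cells/well in 2% FBS medium, incubated overnight at 37° C., then treated 6 days with compounds (8 points, 3-fold dilutions, top 100 μM), medium refreshed once midway. CCK-8 added for 2.5 h; A450 read against 630 nm reference; CC50 calculated, averaged over repeats.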

[2] = test system: HBV; assay: HBV inhibitory activity: HBV DNA in the culture medium of HepG2.2.15 cells by q-PCR; assay type: cell-based; conditions: HepG2.2.15 cells, 6 days of compound treatment, HBV DNA in culture medium by q-PCR, highest concentration 10 μM, read-out: EC50
Procedure, shortened: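 HepG2.2.15 cells in 2% FBS medium, 40,000 per well, treated 6 days with compound (medium refreshed once), eight 3-fold dilutions from 10 μM top. HBV DNA extracted from culture medium and quantified by q-PCR; EC50 averaged over repeats. Cytotoxicity run in parallel at 5,000 cells per well, top 100 μM, giving CC50.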

[3] = Hepatitis B virus, HepG2.2.15, 144 h

Row | Structure (SMILES) | CC50 at 6 days [1] | EC50 [2, 3] | EC50 [2]
1 | COC(=O)C1=C([C@H]2CC[C@H](S(=O)(=O)NCC(C)(C)C(=O)OC(C)(C)C)CC2)NC(c2nccs2)=NC1c1ccc(F)c(F)c1Cl (single isomer, unassigned) [Compound 361X, (trans)-methyl 6-(4-(N-(3-(tert-butoxy)-2,2-dimethyl-3-oxopropyl)sulfamoyl)cyclohexyl)-4-(2-chloro-3,4-difluorophenyl)-2-(thiazol-2-yl)-1,4-dihydropyrimidine-5-carboxylate] | > 100 µM | 87 nM | 
2 | CCOC(=O)C1=C([C@H]2CC[C@H](C(=O)O)CO2)NC(c2nccs2)=NC1c1ccc(F)cc1Cl (single isomer, unassigned) [Compound 363E, (trans)-6-(−6-(2-Chloro-4-fluorophenyl)-5-(ethoxycarbonyl)-2-(thiazol-2-yl)-3,6-dihydropyrimidin-4-yl)tetrahydro-2H-pyran-3-carboxylic Acid] | > 100 µM |  | 296 nM
3 | COCCS(=O)(=O)N1CCC(C2=C(C(=O)OC)C(c3ccc(F)cc3Cl)N=C(c3nccs3)N2)C1 (single isomer, unassigned) [Compound 365, Methyl 4-(2-chloro-4-fluorophenyl)-6-((R*)-1-((2-methoxyethyl)sulfonyl)pyrrolidin-3-yl)-2-(thiazol-2-yl)-1,4-dihydropyrimidine-5-carboxylate] | 21.8 µM | 61 nM | 
4 | COC(=O)C1=C(C23CC(NS(C)(=O)=O)(C2)C3)NC(c2nccs2)=NC1c1ccc(F)cc1Cl (single isomer, unassigned) [Compound 372Y, Methyl 4-(2-chloro-4-fluorophenyl)-6-(3-(methylsulfonamido)bicyclo[1.1.1]pentan-1-yl)-2-(thiazol-2-yl)-1,4-dihydropyrimidine-5-carboxylate] | 31.8 µM | 15 nM | 
5 | COC(=O)C1=C(C23CC(N(C[C@@H](O)CO)S(C)(=O)=O)(C2)C3)NC(c2nccs2)=NC1c1ccc(F)cc1Cl (single isomer, unassigned) [Compound 376C] | 95 µM |  | 75 nM
6 | CCOC(=O)C1=C([C@@H]2CCN(S(C)(=O)=O)[C@@H](CO)C2)NC(c2nccs2)=NC1c1ccc(F)cc1Cl (single isomer, unassigned) [Compound 379C, ethyl 4-(2-chloro-4-fluorophenyl)-6-((trans)-2-(hydroxymethyl)-1-(methylsulfonyl)piperidin-4-yl)-2-(thiazol-2-yl)-1,4-dihydropyrimidine-5-carboxylate] | 32.6 µM | 55 nM | 
7 | COC(=O)C1=C([C@H]2CC[C@H](O)CC2)NC(c2nccs2)=NC1c1cccc(F)c1Cl (single isomer, unassigned) [Compound 381A, (trans)-Methyl 4-(2-chloro-3-fluorophenyl)-6-(4-hydroxycyclohexyl)-2-(thiazol-2-yl)-1,4-dihydropyrimidine-5-carboxylate] | 28.5 µM | 70 nM | 
8 | COC(=O)C1=C(C2CCCN(S(C)(=O)=O)CC2)NC(c2nccs2)=NC1c1ccc(F)cc1Cl (single isomer, unassigned) [Compound 383A, Methyl 4-(2-chloro-4-fluorophenyl)-6-(1-(methylsulfonyl)azepan-4-yl)-2-(thiazol-2-yl)-1,4-dihydropyrimidine-5-carboxylate] | 32.9 µM | 87 nM | 
9 | COC(=O)C1=C([C@H]2CC[C@H](NS(=O)(=O)C3COC3)CC2)NC(c2nccs2)=NC1c1ccc(F)cc1Cl (single isomer, unassigned) [Compound 384B, (trans)-Methyl 4-(2-chloro-4-fluorophenyl)-6-(4-(oxetane-3-sulfonamido)cyclohexyl)-2-(thiazol-2-yl)-1,4-dihydropyrimidine-5-carboxylate] | 34 µM | 65 nM | 
10 | COC(=O)C1=C([C@H]2CC[C@H](N(C)S(C)(=O)=O)CC2)NC(c2nccs2)=NC1c1ccc(F)cc1Cl (single isomer, unassigned) [Compound 388B, (trans)-Methyl 4-(2-chloro-4-fluorophenyl)-6-(4-(N-methylmethylsulfonamido)cyclohexyl)-2-(thiazol-2-yl)-1,4-dihydropyrimidine-5-carboxylate] | 27.8 µM | 28 nM | 
11 | COC(=O)C1=C([C@H]2CC[C@H](NS(C)(=O)=O)CC2)NC(c2ncc(F)cc2F)=NC1c1ccc(F)cc1Cl (single isomer, unassigned) [Compound 396B, (trans)-Methyl 4-(2-chloro-4-fluorophenyl)-2-(3,5-difluoropyridin-2-yl)-6-(4-(methylsulfonamido)cyclohexyl)-1,4-dihydropyrimidine-5-carboxylate] | 22.5 µM | 20 nM | 
12 | COC(=O)C1=C(C2CCN(S(C)(=N)=O)CC2)NC(c2nccs2)=NC1c1ccc(F)cc1Cl (single isomer, unassigned) [Compound 401Y, Methyl 4-(2-chloro-4-fluorophenyl)-6-(1-(S-methylsulfonimidoyl)piperidin-4-yl)-2-(thiazol-2-yl)-1,4-dihydropyrimidine-5-carboxylate] | 60 µM | 24 nM | 
13 | COC(=O)C1=C([C@H]2CC[C@H](N(CCCO)S(C)(=O)=O)CC2)NC(c2nccs2)=NC1c1ccc(F)cc1Cl (single isomer, unassigned) [Compound 431B, (trans)-Methyl 4-(2-chloro-4-fluorophenyl)-6-(4-(N-(3-hydroxypropyl)methylsulfonamido)cyclohexyl)-2-(thiazol-2-yl)-1,4-dihydropyrimidine-5-carboxylate] | 28.1 µM | 52 nM | 
14 | COC(=O)C1=C([C@H]2CC[C@H](N(CCO)C(C)=O)CC2)NC(c2nccs2)=NC1c1ccc(F)c(F)c1Cl (single isomer, unassigned) [Compound 433B, (trans)-Methyl 4-(2-chloro-3,4-difluorophenyl)-6-(4-(N-(2-hydroxyethyl)acetamido)cyclohexyl)-2-(thiazol-2-yl)-1,4-dihydropyrimidine-5-carboxylate] | 17.4 µM | 59 nM | 
15 | COC(=O)C1=C([C@H]2CC[C@H](N(CCO)CC(F)(F)F)CC2)NC(c2nccs2)=NC1c1ccc(F)c(F)c1Cl (single isomer, unassigned) [Compound 434B, (trans)-Methyl 4-(2-chloro-3,4-difluorophenyl)-6-(4-((2-hydroxyethyl)(2,2,2-trifluoroethyl)amino)cyclohexyl)-2-(thiazol-2-yl)-1,4-dihydropyrimidine-5-carboxylate] | 6.8 µM | 128 nM | 
16 | CCOC(=O)C1=C([C@H]2C[C@@H](NS(C)(=O)=O)C2(C)C)NC(c2nccs2)=NC1c1ccc(F)cc1Cl (single isomer, unassigned) [Compound 437A, (cis)-Ethyl 4-(2-chloro-4-fluorophenyl)-6-(2,2-dimethyl-3-(methylsulfonamido)cyclobutyl)-2-(thiazol-2-yl)-1,4-dihydropyrimidine-5-carboxylate] | 10.4 µM | 600 nM | 
17 | COC(=O)C1=C([C@H]2CC[C@H](N(CC#N)S(C)(=O)=O)CC2)NC(c2nccs2)=NC1c1ccc(F)cc1Cl (single isomer, unassigned) [Compound 448A, (trans)-Methyl 4-(2-chloro-4-fluorophenyl)-6-(4-(N-(cyanomethyl)methylsulfonamido)cyclohexyl)-2-(thiazol-2-yl)-1,4-dihydropyrimidine-5-carboxylate] | > 100 µM | 8 nM | 
18 | COC(=O)C1=C([C@H]2CCCC(C(=O)O)C2)NC(c2nccs2)=NC1c1cccc(F)c1Cl (stereo in doubt) [Compound 25, cis-3-(6-(2-Chloro-3-fluorophenyl)-5-(methoxycarbonyl)-2-(thiazol-2-yl)-3,6-dihydropyrimidin-4-yl)cyclohexanecarboxylic Acid] | 35.3 µM | 165 nM | 
19 | CCOC(=O)C1=C(C2CCN(S(=O)(=O)C3CC(C(=O)O)C3)CC2)NC(c2nccs2)=NC1c1ccc(F)c(F)c1Br (stereo in doubt) [Compound 199B, (trans)-3-((4-(6-(2-bromo-3,4-difluorophenyl)-5-(ethoxycarbonyl)-2-(thiazol-2-yl)-3,6-dihydropyrimidin-4-yl)piperidin-1-yl)sulfonyl)cyclobutanecarboxylic Acid] | 14.2 µM | < 4.6 nM | 
20 | COC(=O)C1=C([C@H]2CC[C@H](S(=O)(=O)N3CC[C@@H](C(=O)O)C3)CC2)NC(c2nccs2)=NC1c1ccc(F)c(F)c1Cl (stereo in doubt) [Compound 293C, (trans)-1-((4-((R)-6-(2-Chloro-3,4-difluorophenyl)-5-(methoxycarbonyl)-2-(thiazol-2-yl)-3,6-dihydropyrimidin-4-yl)cyclohexyl)-sulfonyl)pyrrolidine-3-carboxylic Acid] | 85.7 µM | 150 nM | 
21 | COC(=O)C1=C(C2CCN(C(C)=O)CC2)NC(c2nccs2)=NC1c1ccc(F)cc1Cl (centres unmarked) [Compound 2, Methyl 6-(1-acetylpiperidin-4-yl)-4-(2-chloro-4-fluorophenyl)-2-(thiazol-2-yl)-1,4-dihydropyrimidine-5-carboxylate] | 98.4 µM | 232 nM | 
22 | COC(=O)C1=C(C2CCNC(=O)C2)NC(c2nccs2)=NC1c1ccc(F)cc1Cl (centres unmarked) [Compound 3, Methyl 4-(2-chloro-4-fluorophenyl)-6-(2-oxopiperidin-4-yl)-2-(thiazol-2-yl)-1,4-dihydro-pyrimidine-5-carboxylate] | 32.8 µM | 38 nM | 
